Columns and labels:
HepG2 cells = test: In vitro HDL internalization in human hepatocytes (HepG2) cells; format: cell-based; details: compound 1 μM; 3H-labeled HDL 75 μg/ml, 10 min at 37° C.
Protocol: FIG. 3: Single-dose effect of the selected molecules on HDL internalization by HepG2 cells. Cells were incubated for 10 min at 37° C. with 75 μg/ml ^3H cholesterol Cholesteryl Oleate [Cholesteryl-1,2-^3H(N)] HDL, Reference Compound (100 nM) and illustrative compounds of the invention (1 μM). Data are expressed as the percentage of internalized radioactivity with respect to the control value (set as […]). *p<0.005, **p<0.0001.
The effect of illustrative compounds of the invention on HDL internalization was measured by an in vitro assay on HepG2 cells (FIG. 3). ^3H cholesterol Cholesteryl Oleate [Cholesteryl-1,2-^3H(N)] labeled HDL] (available from PerkinElmer http://www.perkinelmer.com/Catalog/Product/ID/NET746L001MC) was loaded on HepG2 cells in presence of illustrative compounds of the invention (final concentration 1 μM). […] It was determined that Compounds XIa, IIc, IIa and Ih (R-isomer) have a strong impact on HDL uptake by HepG2 cells; Compounds IIb, VIIa and VIIIa have a modest impact on HDL uptake by HepG2 cells.
^3H cholesterol Cholesteryl Oleate [Cholesteryl-1,2-^3H(N)] (Perkin Elmer) solution (250 μL) was dried and resuspended in acetone (250 μL). The solution was mixed with Lipoprotein delipidated serum (20 mL at 40 mg/mL) and DTNB (0.4 μM final concentration). HDL (7 mg) was added and incubated overnight at 4° C. on gentle rotation. The HDL was purified on KBr gradient as previously described.
Hepatocytes were plated at 300,000 cells/well in 6×-well plates. Two days later, the cells were washed once with DMEM and incubated for 1 hour in DMEM at 37° C. 75 μg of radio-labeled HDL (6500 dpm/μg) were added to the medium and incubated for 10 minutes at 37° C. The cells were washed once with DMEM (2 mL) and incubated for 1.5 hours in DMEM at 4° C., whereupon dissociation occurred. Then the cells were washed once more with cold DMEM (2 mL) and the incorporated cholesterol ether was retrieved from HepG2 cells by the addition of hexane:isopropanol (3:2) solution (1 mL).

C57Bl/6J mice = test: In vivo liver uptake of [3H]-labelled mouse HDL and LDL; details: intravenous 10 nmole/kg
Protocol: FIG. 16A-J: Increase of bile secretion following activation of P2Y13r pathway in mice. C57Bl/6J mice (n=10) were fasted for 2 h and then intravenously injected with Cangrelor® or Compound IIa (10 nmoles/kg). Four hours later the gallbladders were removed and analyzed for: Bile acids content (FIG. 16A); Bile cholesterol content (FIG. 16B). C57Bl/6J mice (n=10) were fasted for 2 h followed by single oral dose of P2Y13r agonist Compound IIa at 3, 30 or 300 μg/kg. Six hours later bile acids contents (FIG. 16C); bile cholesterol content (FIG. 16D), and bile acid content of liver (FIG. 16E) were evaluated using HPLC and enzymatic kits for gallbladers. Plasma samples were collected at time 0 and after 6 h of treatment, then analyzed for: total cholesterol (▴), unesterified cholesterol (●), esterified cholesterol (▪) and HDL cholesterol (▾) determined using either enzymatic kits or Lipoprint® for HDL cholesterol (FIG. 16F). […] Radioactivity present in the liver was determined 2 hours later for the HDL or 5 hours later for the LDL. Cholesterol content of feces from treated animals (100 μg/kg) was determined by Charge aerosol detection (FIG. 16J). *p<0.05, **p<0.01. […]

CN(C)c1ncc(CN2CCC(c3cc(O)nc(N4CCOCC4)n3)CC2)cn1 [Compound IIa, 6-[1-(2-Dimethylaminopyrimidin-5-ylmethyl)-piperidin-4-yl]-2-morpholin-4-yl-pyrimidin-4-ol]
impact on HDL uptake by HepG2 cells (HepG2 cells): strong impact | liver uptake of labelled HDL as compared to LDL (C57Bl/6J mice): specific stimulation
